# Results from US20090253768A1, “THERAPEUTIC COMPOUNDS FOR DISEASES AND DISORDERS” (Myriad Genetics, Incorporated, priority 2006, published 2009).
# Test system: khc/+; klc/+ Drosophila larvae
# Test: Suppression of the flipper (tail-flipping) motor dysfunction phenotype in an animal model
# Assay type: in vivo, Drosophila melanogaster
# Conditions: for larvae effectively "cured" of their motor dysfunction: after accounting for penetrance
# Excerpt: A stock of fruit flies (Drosophila melanogaster) was generated that is heterozygous for both KHC and KLC, which encode proteins that associate to form functional kinesin-1, also called conventional kinesin. […] A number of factors that contribute to this incomplete penetrance were identified, including the following: • 1. The flipper phenotype of a given animal appears to be suppressed by the number of larvae that precede the animal in development. That is, if a larva is among the first to develop in a vial of eggs, it is more likely to show the flipper phenotype than if it is one of the last to emerge. • 2. The flipper phenotype appears to be less robust on hard media than it is on soft media. • 3. The phenotype is diminished by physically disturbing the larvae. • 4. The clearest expression of the flipper phenotype is restricted to that phase of the 3rd instar stage of development that follows the appearance of spiracles.
# Attempts to accommodate these observations were mad in order to optimize penetrance of the phenotype. Specifically: • 1. Virgin females and males were confined to a single vial for only 2 days; the flies were then transferred to fresh vials for an additional 2 days; and this process was repeated to minimize the number of larvae that would emerge in each vial. • 2. Efforts were taken to minimize handling of the larvae. • 3. Attempts were made to score the phenotype late in the 3rd instar stage of development.
# In a non-blinded experiment, compound 16 (Tables 1 and 2) was tested for its ability to suppress the flipper phenotype of khc/+; klc/+ Drosophila larvae (using the animal model described in Example 7), relative to vehicle (DMSO) alone. Specifically khc/+; klc/+ Drosophila larvae were grown in the presence or absence of 0.5 mM compound 16 and scored for motor dysfunction. A total of 151 larvae were scored, 77 in the vehicle-only group and 74 in the vehicle plus compound group. […] The ratio of Flipper to Non-Flipper phenotype observed in the vehicle-only group corresponds to an 81% penetrance of the flipper phenotype in this experiment. […] Note that equivalent conclusions were obtained if, instead of scoring the number of larvae with and without motor dysfunction, the severity of the aberrant movement was analyzed.
# This experiment was repeated using a blinded format and a total of 221 larvae were scored. Of the larvae in this study 104 larvae were in the vehicle-only group and 117 larvae were in the treatment group. […] The results of this second study are quite similar to those of the first study: after accounting for the differences in penetrance between the studies, compound 16 effectively “cured” 42% of the larvae of their motor dysfunction in the first experiment, and 43% of the larvae in the second experiment.
structure (smiles),measurement,setting,value
"Cc1c(-c2ccccc2)cc(-c2ccc(C(F)(F)F)cc2)n1-c1ccc(CCCC(=O)O)cc1 [Compound 16, 4-{4-[2-Methyl-3-phenyl-5-(4-trifluoromethyl-phenyl)-pyrrol-1-yl]-phenyl}-butyric acid]",reduction in flipper phenotype relative to vehicle,"blinded repeat, 117 treated vs 104 vehicle larvae, vehicle penetrance 78%, Yates' chi-square p <1x10^-6",highly significant reduction in flipper phenotype
same,"larvae effectively ""cured"" of their motor dysfunction","first (non-blinded) experiment, 0.5 mM",42%
same,suppression of the Flipper phenotype relative to vehicle (DMSO),"non-blinded experiment, larvae grown with 0.5 mM compound, 74 treated vs 77 vehicle larvae, vehicle penetrance 81%, Fischer's test p less than 10^-4",significant suppression of the Flipper phenotype
same,"larvae effectively ""cured"" of their motor dysfunction",second (blinded) experiment,43%
